In patent US10385108B2, “Peptide analogs of alpha-melanocyte stimulating hormone” (Genzyme Corporation, priority 2008, dated 2019):

How the values were obtained:
[1] = system: C57BL/6 mice; assay: MOG35-55 induced EAE model; assay type: in vivo
[2] = molecular target: MC5R (Homo sapiens, UniProt P33032); assay: Competitive binding with 125I-NDP-MSH, HEK293 membrane preparations, MC5R
Description: Binding analysis was done by Cerep laboratories (Paris, France) with coded samples.
The mixtures were filtered through 96-well GFC filters (Millipore, Billerica, Mass.), washed 3 times with binding buffer without BSA, dried and counted.
A competitive binding assay using a MCR panel including MCR 1, 3, 4, and 5 was performed.

[3] = system: B16-F1 murine melanoma cells; assay: Intracellular cAMP in B16-F1 melanoma cells; assay type: cell-based
Description: B16-F1 (melanoma cell line) cells from American Type Culture Collection (Manassas, Va.) were seeded into flat bottom 96 well plates at 5×10^4/well and cultured overnight in DMEM (Cambrex, Walkersville, Md.) supplemented with 2 mM glutamine, antibiotics (100 U/ml penicillin and 100 […]) and 10% heat-inactivated fetal bovine serum (Invitrogen, Grand Island, N.Y.). […] Cells were lysed and intracellular cAMP levels were measured by an enzyme immunoassay kit (Amersham Biosciences, Piscataway, N.J.). Forskolin (Sigma, St. Louis, Mo.) at 100 μM served as positive controls.
cAMP levels in B16-F1 melanoma cells after treatment with native α-MSH, RI α-MSH, or a scrambled control peptide were examined. The […] melanoma cell line expresses a high number of MCR1 receptors (3000-4000 receptors/cell) compared with macrophages cell lines which express only 100-200 receptors/cell. Therefore we selected to examine the effect of the RI α-MSH treatment on the melanoma cell line. Murine melanoma B16-F1 cells were treated with native α-MSH, RI α-MSH, or control scrambled peptide at concentrations 1 pg/ml-1 μg/ml. After 30 min, cells were lysed and intracellular cAMP was measured by an enzyme immunoassay. […] However, a higher concentration of RI α-MSH (100 ng/ml) was necessary to increase cAMP compared with native α-MSH which increased cAMP at a 10 pg/ml concentration. This difference in concentration of peptide necessary to increase cAMP levels may be the result of the binding affinity to the MCR1 receptor.
Murine melanoma B16-F1 cells were treated with native α-MSH, RI α-MSH, scrambled peptide control, KPV, or alanine substituted peptides of RI α-MSH at 1 μg/ml (FIG. 7B). […] Peptides designated 810, 811, and 812 have alanine substitutions in the central core tetrapeptide sequence (D-Trp D-Arg D-Phe D-His region; AA 5-8) (variant disclosed in SEQ ID NO:2) proposed to be involved in native α-MSH binding to the melanocortin receptor and its biological activity. […] The residues in the core tetrapeptide (wrfh) (variant disclosed in SEQ ID NO:2) and to a lesser extent, the methionine 4 of RI-MSH are critical for binding to MC1R.
B16-F1 murine melanoma cells were cultured into 96 well plates 5×10^4 cells/well overnight in media with L-glutamine and pen/strep and FBS. Media was removed and new media with IBMX was added to the cells for 1 hr. Cells were then treated with RI α-MSH, or RI α-MSH peptide analogs (890, 891, 892, 893, 894 or 895). Cells were lysed after 30 min using a cAMP assay kit and supernatant were used in the assay. Forskolin at 10 μM served as positive controls.
Intracellular cAMP was measured using a cAMP competition Assay Kit (Amersham Biosciences). All cell lysate samples were diluted 1:100 for analysis.
Murine melanoma B16-F1 cells were treated with RI α-MSH, or RI α-MSH analogs (869, 872, 880, 878, 886 and 890-895) at a concentration range of 10^−4-10^−11 M. cAMP levels from cells treated with RI α-MSH, or RI α-MSH analogs. […] See FIG. 22 for graphical data and Table 2 for EC50 data.

[4] = Peptide stability in plasma or PBS in vitro at 37° C.; assay type: in vitro ADME; conditions: 24 hours
Description: The stability of RI-α-MSH was determined by incubation in plasma or PBS in vitro at 37° C. for 24 hours. Aliquots were taken and proteins precipitated with 2 volumes of acetonitrile. α-MSH was used as a control and bradykinin as an internal standard. After centrifugation, samples were frozen at −80° C. until LC/MS/MS (MRM) analysis using a C18 column separation and positive electrospray ionization mode.

[5] = Serum levels after a single dose in mice; assay type: in vivo
[6] = Example 10, 100 μg/mouse i.p. daily from day 10

MC5R, sequence (P33032 whole entry): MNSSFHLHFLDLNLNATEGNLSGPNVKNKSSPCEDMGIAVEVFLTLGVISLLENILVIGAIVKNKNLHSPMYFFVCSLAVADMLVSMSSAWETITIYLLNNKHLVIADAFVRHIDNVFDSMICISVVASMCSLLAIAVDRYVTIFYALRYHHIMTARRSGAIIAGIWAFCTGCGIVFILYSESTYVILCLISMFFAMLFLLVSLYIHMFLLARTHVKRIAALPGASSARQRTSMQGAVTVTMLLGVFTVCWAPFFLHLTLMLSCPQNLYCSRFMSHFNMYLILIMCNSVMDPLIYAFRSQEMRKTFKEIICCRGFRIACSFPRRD

Ki ([2]; Ki MC5R, competition with 125I-NDP-MSH, cells noted in μM): ~25 µM
binding to MCR-5 (in words) ([2]; MCR panel 1, 3, 4, 5): bind only to MCR-1
EC50 ([3]; B16-F1 cells, 10^-4-10^-11 M, 30 min, IBMX): 9.7 µM
stability in PBS (in words) [4]: stable both in PBS and plasma
stability in plasma (in words) ([4]; in vitro): no detectable degradation over 24 hours
serum half-life compared (in words) ([5]; mouse, in vivo, iv): longer serum half-life than native α-MSH
SMILES: CSCC[C@@H](NC(=O)[C@@H](CCC(=O)O)NC(=O)[C@@H](Cc1c[nH]cn1)NC(=O)[C@@H](Cc1ccccc1)NC(=O)[C@@H](CCCNC(=N)N)NC(=O)[C@@H](Cc1c[nH]c2ccccc12)NC(=O)CNC(=O)[C@@H](CCCCN)NC(=O)[C@H]1CCCN1C(=O)[C@H](NC(C)=O)C(C)C)C(=O)N[C@H](CO)C(=O)N[C@H](Cc1ccc(O)cc1)C(=O)N[C@H](CO)C(N)=O [RI-MSH, vpkGwrfhemsys]
spinal cord histopathology (in words) ([1]; 100 μg/mouse i.p. daily from day 10, day 24): lack focal area of inflammation
TNF-α mRNA in spleen vs PBS (in words) ([1]; Day 1 and Day 4 of treatment): no significant change
IL-10 mRNA in spleen vs PBS (in words) ([1]; Day 7 of treatment): reduced
maximum percent incidence of disease [1, 6]: 20%
mean clinical disease score vs PBS (in words) [1, 6]: significant reduction in the mean clinical disease score
mean clinical scores (in words) ([1]; Example 11, 30 μg/mouse i.p. daily from day 10): did not have a significant effect
maximum percent incidence of disease ([1]; Example 11, dexamethasone 2 mg/kg): 35%
mean clinical disease score vs PBS (in words) ([1]; Example 11, peptides 100 μg/mouse, dexamethasone 2 mg/kg, i.p. daily from day 10): reduction in the mean clinical disease score
TNF-α mRNA in spleen vs PBS (in words) ([1]; after 7 days of daily treatment): significantly decreased
IL-10 mRNA in spleen vs PBS (in words) ([1]; earlier timepoints (Day 1 and 4)): no difference
cAMP levels, dose response (in words) ([3]; 1 pg/ml-1 μg/ml, 30 min, vs untreated or scrambled peptide): significantly increased cAMP levels in a dose dependent manner
concentration necessary to increase cAMP ([3]; 30 min): 100 ng/mL
cAMP levels (in words) ([3]; peptide at 1 μg/ml): significantly elevated
serum levels after a single dose (in words) ([5]; single dose of 100 μg, mice, n=5): measurable serum levels of RI-α-MSH after 24 hrs
